Test results published in patent US20090286731A1, “METHODS AND COMPOSITIONS FOR THE TREATMENT OF XEROSTOMIA” (THE REGENTS OF THE UNIVERSITY OF COLORADO, A BODY CORPORATE, priority 2006, published 2009).

Legend:
ATM and Chk1 = assay: Phosphorylation of ATM, Chk1 and p53 in myr-Akt1 primary salivary acinar cells (immunoblot); assay type: cell-based, mouse; conditions: with or without siRNA that targeted MDM2
Method: In FIG. 9A, primary salivary acinar cells isolated from myr-Akt1 mice were transfected with various control or MDM2 specific siRNA molecules. Cell lysates were collected 24-72 hrs after transfection and immunoblotted with an anti-MDM2 antibody (top panel) or anti-p53 (DO12, middle panel). […] In lanes 6 and 7, primary salivary acinar cells isolated from myr-Akt1 mice were transfected with siRNA molecules targeting MDM2 for 48 hrs.
Immunoblotting. Tissues were lysed in RIPA (150 mM NaCl, 50 mM Tris, pH 7.4, 2 mM EGTA, 1% Triton X-100, 0.25% sodium deoxycholate) supplemented with protease inhibitor cocktail (Sigma Chemical Company, St. Louis, Mo.), 100 μg/ml phenylmethylsulfonyl fluoride, and 100 U/ml aprotinin (Pierce Chemical Company, Rockford, Ill.). […] Primary salivary acinar cells were lysed in JNK lysis buffer (25 mM HEPES, pH 7.5, 20 mM β-glycerophosphate, 0.1 mM sodium orthovandadate, 0.1% Triton X-100, 0.3M NaCl, 1.5 mM MgCl2, 0.2 mM EDTA, 0.5 mM dithiothreitol, and 10 mM NaF) supplemented with aprotinin (4 μg/ml), Prefebloc (0.5 mg/ml), and leupeptin (2 μg/ml) (Pierce Chemical Company) and 1 mM sodium orthovandate, and the lysates clarified by centrifugation at 4° C. for 30 min at 13,000 rpm in a refrigerated Savant microcentrifuge (Anderson et al., 1999). Protein concentrations were determined using the BCA Protein Assay Kit (Pierce Chemical Company). […]

[1] = system: primary salivary acinar cells; assay: Induction of apoptosis in primary salivary acinar cells (caspase-3 activity); assay type: cell-based, mouse
Method: In FIG. 3A, all adherent and nonadherent primary parotid acinar cells were collected and lysed in caspase lysis buffer (BioMol QuantiZyme Colormetric Assay kit) and 15 μg of cell lysate was used to analyze the level of enzyme activity for each sample in quadruplicate. The ability of the enzyme to cleave a chromogenic substrate was read at A405 every ten minutes for seven hours and the -fold increase relative to untreated parotid cells is plotted. […] In FIG. 3B, primary submandibular acinar cells were collected in caspase lysis buffer as described above and the -fold increase relative to untreated submandibular cells is plotted. […] Graphs of caspase activity represent all data points collected from five independent experiments and Student's t-test p values were calculated using Microsoft Excel comparing two different treatment groups.
Generation and cultivation of primary salivary acinar cells. Primary salivary acinar cells were prepared from 4-5 week old female FVB or myr-Akt1 transgenic mice. […]
Induction and quantitation of apoptosis. […] Activation of caspase 3 was quantitated using BioMol QuantiZyme Colormetric Assay kit (Plymouth Meeting, Pa.). […] Caspase-3 activity in 15 μg of cellular lysate was measured by the cleavage of Ac-DEVD-pNA substrate and absorbance at A405 was quantitated in a microtiter plate reader (Molecular Devices) at 10-minute intervals for 7 hrs.

Akt = assay: IGF1 activation of endogenous Akt in the salivary gland after tail vein injection (anti-phospho-Akt immunoblot); assay type: in vivo, mice; conditions: for activation of Akt (immunoblotting with anti-phospho-Akt (threonine^473) antibody): salivary gland
Method: (§1) FIGS. 12A-C—IGF1 activation of Akt in vivo and rescue of salivary flow rates 3 days after single γ-irradiation exposure. (FIG. 12A) FVB mice received an injection of 1, 5, 10, or 50 ng/ml recombinant IGF1. Tissue lysates were collected for immunoblotting five minutes after injection and membranes were probed for activation of Akt using a phosphorylation specific antibody. (FIG. 12B) FVB mice received an injection of 5 μg/ml recombinant IGF1 and tissue lysates were collected for immunoblotting 0, 5, 10 or 30 min after injection. Membranes were probed for activated Akt as described in FIG. 12A. Membranes were stripped and re-probed with a total antibody against ERK1/2 as a loading control in both A and B. (FIG. 12C) Four-week old female FVB mice were injected with 5 μg/ml recombinant IGF1 immediately prior to treatment with 1Gy γ-irradiation. Total saliva was collected following carbachol injection as described in FIG. 11 three days after radiation exposure. For Untreated, N=10; for IGF1, N=5; for 1 Gy, N=10, and for 1 Gy+IGF1, N=7. Statistical analysis was performed using Student's t-test in Microsoft Excel.
(§2) γ-irradiation treatment. For in vivo experiments, four-week old female FVB and myr-Akt1 transgenic mice were anesthetized with avertin (0.4-0.6 mg/gm, IP) and the head and neck region was exposed to ionizing radiation using a RS 2000 Biological Irradiator (Humphries et al., 2006). The rest of the body was shielded with 6 mm lead foil and sheets to avoid systemic effects of γ-irradiation. […] For IGF1 injections, mice were anesthetized with avertin and tails were warmed in water to allow dilation of blood vessels. Mice were injected with a total volume of 100 μl of IGF1 diluted in sterile PBS and immediately placed into the radiation chamber.
Stimulation of cells with both IGF1 and EGF produced a synergistic activation of Akt and suppression of apoptosis (Limesand et al., 2003). […] Mice were injected with 1, 5, 10, or 50 μg recombinant IGF1 and the activation of Akt was examined in the salivary gland five minutes after injection.
The inventors also determined the kinetics with which Akt was activated following injection of mice with 5 μg IGF1. Salivary glands were removed at 5, 10, and 30 minutes post-injection, tissue lysates prepared, and the activation of Akt examined by immunoblotting with anti-phospho-Akt ([…]) antibody (FIG. 12B). […] Future studies are needed to determine whether Akt remains activated for longer periods of time.

salivary acinar cells [2] = conditions: cited from earlier work
FVB mice = assay: Salivary flow rate after head and neck γ-irradiation (carbachol-stimulated saliva collection); assay type: in vivo
Method: FIG. 11—Rescue of salivary flow rates 3 days after single γ-irradiation exposure in Myr-Akt1 mice. Four-week old female FVB and myr-Akt1 mice were exposed to 1, 2, or 5Gy γ-irradiation. Three days after irradiation total saliva was collected (over a five-minute period) following carbachol injection. Statistical analysis was performed using Student's t-test in Microsoft Excel.
as §1
FIG. 13—Rescue of salivary flow rates 30 days after single γ-irradiation exposure by Myr-Akt1 or injection with IGF1. Four-week old female FVB, myr-Akt1 and FVB mice injected with 5 μg/ml recombinant IGF1 were exposed to 1Gy γ-irradiation. IGF1 injections were performed immediately prior to radiation exposure as described in FIGS. 12A-C. Thirty days after exposure to γ-irradiation total saliva was collected following carbachol injection as described in FIG. 11. For unirradiated, untreated, N=8; for unirradiated myr-Akt1, N=8; for unirradiated IGF1 injected, N=8; for 1 Gy irradiated FVB, N=8, for myr-Akt1 riiadiated with 1 Gy, N=6, for FVB that received IGF1 and I Gy, N=6. Statistical analysis was performed using multiple comparison testing in the SAS system.
as §2, with “Mice were injected with a total volume of 100 μl of IGF1 diluted in sterile PBS and immediately placed into the radiation chamber.” left out

salivary acinar cells [3] = assay: Activated caspase-3 staining of irradiated salivary glands (apoptotic cells); assay type: in vivo; conditions: pretreatment of mice with IGF1
Method: Activated caspase-3 staining. Salivary glands were removed at various time points post-irradiation, fixed in 10% neutral buffered formalin, and then embedded in paraffin. Slides were stained for activated caspase-3 (Cell Signaling #9661; Beverly, Mass.) as previously described (Humphries et al., 2006). Cell counts were performed on a minimum of five fields of view per slide from three mice (total cells counted ranged from 1800-2500 per mouse).

Compound	phosphorylation of ATM at serine^1981 (ATM and Chk1)	apoptosis of salivary acinar cells ([1]; cells from FVB control mice)	apoptosis (caspase-3 activation) ([1]; myr-Akt1 salivary acinar cells, 18 hrs after treatment)	phosphorylated Akt thirty minutes following administration (Akt; 5 μg IGF1, salivary gland)	time of maximal activation of Akt after injection (Akt; 5 μg IGF1, salivary glands removed at 5, 10 and 30 minutes)	activation of Akt (immunoblotting with anti-phospho-Akt (threonine^473) antibody) (Akt; five minutes after injection of 1 μg and 5 μg IGF1)	activation of Akt (immunoblotting with anti-phospho-Akt (threonine^473) antibody) (Akt; five minutes after injection of 10 and 50 μg IGF1 per mouse)	activation of Akt (salivary acinar cells [2])	apoptosis induced by etoposide (salivary acinar cells [2])	salivary flow rate, IGF1 alone (FVB mice; 5 μg IGF1, unirradiated mice, three days following injection)	salivary flow rate versus unirradiated FVB control mice (FVB mice; IGF1 injected, unirradiated, thirty-day time point)	irradiation-induced reduction in salivary flow rate (FVB mice; single dose of 5 μg recombinant IGF1 immediately prior to 1 Gy, three days after exposure)	decrease in salivary flow rate compared to controls (FVB mice; single dose of IGF1 prior to 1 Gy γ-irradiation, 30 days after exposure)	number of apoptotic cells after irradiation (salivary acinar cells [3])
COc1cc([C@@H]2c3cc4c(cc3[C@@H](O[C@@H]3O[C@@H]5CO[C@@H](C)O[C@H]5[C@H](O)[C@H]3O)[C@H]3COC(=O)[C@H]23)OCO4)cc(OC)c1O [etoposide]	resulted in the phosphorylation of ATM	induce apoptosis	did induce some apoptosis											
IGF1: recombinant IGF1, activator of the Akt pathway, injected into the tail vein of mice				could still be detected	five	results in the activation of Akt	did not result in the activation of Akt	induces activation of Akt	suppresses apoptosis	had no effect	not a statistical difference	completely suppressed	no decrease in salivary flow rate	significantly decreases the number of apoptotic cells
